From US7745375B2, “Synergistic insecticide mixtures” (Bayer CropScience AG, priority 2003, dated 2010)

Legend:
Assay type in all cases: in vivo
Bemisia tabaci [1] = assay: Example B Bemisia tabaci test (cotton plants sprayed); settings: single active compound, 0.8 ppm
Protocol: (§1) To prepare a suitable active compound preparation, 1 part by weight of active compound is mixed with the stated amounts of solvent and emulsifier, and the concentrate is diluted with emulsifier-comprising water to the desired concentration.
(§2) Cotton plants (Gossypium hirsutum) which are infested with whitefly (Bemisia tabaci) eggs, larvae and puparia are sprayed with the active compound preparation of the desired concentration.
(§3) After the desired period of time, the destruction is determined in %. In this context, 100% means that all of the whiteflies were destroyed; 0% means that no whiteflies were destroyed.

Myzus persicae [2] = assay: Example D Myzus persicae test (cabbage leaves dipped); settings: single active compound, 0.8 ppm
Protocol: as §1
(§4) Cabbage leaves (Brassica oleracea) which are severely infested with green peach aphids (Myzus persicae) are treated by being dipped into the active compound preparation of the desired concentration.
(§5) After the desired period of time, the destruction is determined in %. In this context, 100% means that all of the aphids were destroyed; 0% means that no aphids were destroyed.

Myzus persicae [3] = assay: Example M Myzus persicae test (cabbage leaves dipped); settings: single active compound, 0.16 ppm
Protocol: as §1, §4, §5

Bemisia tabaci [4] = assay: Example K Bemisia tabaci test (cotton plants sprayed); settings: single active compound, 0.16 ppm
Protocol: as §1, §2, §3

Heliothis armigera [5] = assay: Example C Heliothis armigera test (soya bean shoots dipped); settings: single active compound, 4 ppm
Protocol: as §1
Soya bean shoots (Glycine max) are treated by being dipped into the active compound preparation of the desired concentration and populated with Heliothis armigera caterpillars while the leaves are still damp.
(§6) After the desired period of time, the destruction is determined in %. In this context, 100% means that all of the caterpillars were destroyed; 0% means that no caterpillars were destroyed.

Aphis gossypii = assay: Example A Aphis gossypii test (cotton leaves dipped); settings: single active compound, 0.8 ppm
Protocol: as §1
Cotton leaves (Gossypium hirsutum) which are severely infested with cotton aphids (Aphis gossypii) are treated by being dipped into the active compound preparation of the desired concentration.
as §5

Heliothis armigera [6] = assay: Example L Heliothis armigera test (soya bean shoots dipped); settings: single active compound, 4 ppm
Protocol: as §1
Soya bean shoots (Glycine max) are treated by being dipped into the active compound preparation of the desired concentration and populated with Heliothis armigera caterpillars while the leaves are still moist.
as §6

Spodoptera exigua [7] = assay: Example N Spodoptera exigua test (cabbage leaves dipped); settings: single active compound, 20 ppm
Protocol: as §1
(§7) Cabbage leaves (Brassica oleracea) are treated by being dipped into the active compound preparation of the desired concentration and populated with army worm caterpillars (Spodoptera exigua) while the leaves are still moist.
as §6

[8] = tested on: Plutella xylostella (normal strain); assay: Example E Plutella xylostella test (normal strain); settings: single active compound, 20 ppm
Protocol: as §1
Cabbage leaves (Brassica oleracea) are treated by being dipped into the active compound preparation of the desired concentration and populated with diamondback moth caterpillars (Plutella xylostella/sensitive strain) while the leaves are still moist.
as §6

Myzus persicae [9] = assay: Example G Myzus test (cabbage leaves dipped); settings: single active compound, 0.16 ppm
Protocol: as §1, §4, §5

Spodoptera exigua [10] = assay: Example I Spodoptera exigua test (cabbage leaves dipped); settings: single active compound, 100 ppm
Protocol: as §1, §7, §6

Heliothis armigera [11] = assay: Example F Heliothis armigera test (soya bean shoots dipped); settings: single active compound
Protocol: as §1
Soya bean shoots (glycine max) are treated by being dipped into the active compound preparation of the desired concentration and populated with Heliothis armigera caterpillars while the leaves are still moist.
as §6

Spodoptera frugiperda = assay: Example J Spodoptera frugiperda test (cabbage leaves dipped); settings: single active compound, 0.8 ppm
Protocol: as §1
Cabbage leaves (Brassica oleracea) are treated by being dipped into the active compound preparation of the desired concentration and populated with army worm caterpillars (Spodoptera frugiperda) while the leaves are still moist.
as §6

[12] = tested on: Plutella xylostella/normal strain; assay: Example H Plutella test (normal strain); settings: single active compound
Protocol: as §1
Cabbage leaves (Brassica oleracea) are treated by being dipped into the active compound preparation of the desired concentration and populated with diamondback moth caterpillars (Plutella xylostella/normal strain) while the leaves are still moist.
as §6

Structure (SMILES) | Destruction in % after 12 d (Bemisia tabaci [1]) [%] | Destruction in % after 6 d (Myzus persicae [2]) [%] | Destruction in % after 6 d (Myzus persicae [3]) [%] | Destruction in % after 10 d (Bemisia tabaci [4]) [%] | Destruction in % after 6 d (Heliothis armigera [5]) [%] | Destruction in % after 6 d (Aphis gossypii) [%] | Destruction in % after 6 d (Heliothis armigera [6]) [%] | Destruction in % after 6 d (Spodoptera exigua [7]) [%] | Destruction in % after 6 d [8] [%] | Destruction in % after 6 d (Myzus persicae [9]) [%] | Destruction in % after 7 d (Spodoptera exigua [10]) [%] | Destruction in % after 7 d (Heliothis armigera [11]; 0.8 ppm) [%] | Destruction in % after 7 d (Spodoptera frugiperda) [%] | Destruction in % after 7 d ([12]; 4 ppm) [%] | Destruction in % after 7 d (Heliothis armigera [11]; 4 ppm) [%] | Destruction in % after 7 d ([12]; 20 ppm) [%]
CN/C(=N\[N+](=O)[O-])NCc1cnc(Cl)s1 [Clothianidin, clothianidin] | 35 | 65 | 0 | 5 | 45 | 0 | 0 | 10 | 60 |  |  |  |  |  |  | 
N#C/N=C1\SCCN1Cc1ccc(Cl)nc1 [Thiacloprid, thiacloprid] | 80 | 20 |  |  | 35 | 25 |  |  | 15 | 10 | 0 | 0 | 10 | 0 |  | 
O=[N+]([O-])/N=C1\NCCN1Cc1ccc(Cl)nc1 [Imidacloprid, imidacloprid] |  |  | 50 | 5 |  |  | 10 | 10 |  | 10 | 45 |  | 20 |  | 10 | 15
